Experiments:
[1] = target: GDP-bound NRAS wild-type protein (Homo sapiens, UniProt P01111); assay: Binding to NRAS by surface plasmon resonance (SPR), Single Cycle Kinetics; details: SPR; KD ratio class
[2] = test system: human lung cancer strain NCI-H441; assay: cells; details: NCI-H441, 96 h, read-out: NCI-H441 IC50 (nM)
[3] = target: GDP-bound HRAS wild-type protein (Homo sapiens, UniProt P01112); assay: Binding to HRAS by surface plasmon resonance (SPR), Single Cycle Kinetics; details: SPR; KD ratio class
Chain of GDP-bound HRAS wild-type protein (P01112 whole entry): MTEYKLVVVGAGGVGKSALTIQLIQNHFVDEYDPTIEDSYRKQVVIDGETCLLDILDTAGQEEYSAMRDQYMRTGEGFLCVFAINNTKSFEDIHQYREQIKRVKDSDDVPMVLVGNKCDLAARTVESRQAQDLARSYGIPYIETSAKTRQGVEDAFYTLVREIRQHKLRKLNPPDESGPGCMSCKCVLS

Chain of GDP-bound NRAS wild-type protein (P01111 whole entry): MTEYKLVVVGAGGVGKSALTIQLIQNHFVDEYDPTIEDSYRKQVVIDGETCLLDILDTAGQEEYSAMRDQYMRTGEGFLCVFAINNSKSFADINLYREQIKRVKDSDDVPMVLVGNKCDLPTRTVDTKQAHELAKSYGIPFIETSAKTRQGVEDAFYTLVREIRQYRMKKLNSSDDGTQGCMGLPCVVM

| IC50 [2] | Structure (SMILES) | NRAS/KRAS (ratio of KD value for GDP-bound NRAS wild-type protein to KD value for KRAS) [1] | HRAS/KRAS (ratio of KD value for GDP-bound HRAS wild-type protein to KD value for KRAS) [3] |
| --- | --- | --- | --- |
| 14.7 nM | CC[C@H](C)[C@@H]1NC(=O)[C@H](CC)N(C)C(=O)C[C@@H](C(=O)N(C)C)N(C)C(=O)[C@H](C2CCCC2)N(C)C(=O)C2(CCCC2)NC(=O)[C@@H]2CCCN2C(=O)[C@H](CCc2cc(F)c(C(F)(F)F)c(F)c2)NC(=O)CN(C)C(=O)[C@H](Cc2ccc(C(F)(F)F)cc2)N2CC(C)[C@@H](C)C[C@@H](C2=O)N(C)C(=O)CN(C)C1=O (stereo partly drawn) [PP1349] | C (A compound having a KD ratio of 0.1 or more and less than 3 is denoted as C) | B (a compound having 3 or more and less than 10 is denoted as B) |
| 271 nM | CCO[C@@H]1C[C@H]2C(=O)NC3(CCC3)C(=O)N(C)[C@@H](C3CCCC3)C(=O)N(C)[C@H](C(=O)N3CCCC3)CC(=O)N(C)[C@@H](CC3CCCC3)C(=O)N[C@@H]([C@@H](C)CC)C(=O)N(C)CC(=O)N(C)[C@H]3C/C=C\CCN(C3=O)[C@@H](Cc3ccc(F)cc3)C(=O)N(C)CC(=O)N[C@@H](CCc3ccc4sccc4c3)C(=O)N2C1 [PP1391] | A (a compound having 10 or more and less than 20 is denoted as A) | A (a compound having 10 or more and less than 20 is denoted as A) |
| 46.3 nM | CC[C@H](C)[C@@H]1NC(=O)[C@H](CC2CC2)N(C)C(=O)C[C@@H](C(=O)N2CCOCC2)N(C)C(=O)[C@H](C2CCCC2)N(C)C(=O)C2(CCC2)NC(=O)[C@@H]2CCCN2C(=O)[C@H](CCc2ccc(C(F)(F)F)c(Cl)c2)NC(=O)CN(C)C(=O)[C@H](Cc2ccc(C(F)(F)F)cc2)N2C[C@H](C)CC[C@@H](C2=O)N(C)C(=O)[C@@H]2CCN2C1=O [PP1341] | A (a compound having 10 or more and less than 20 is denoted as A) | B (a compound having 3 or more and less than 10 is denoted as B) |
| 10.9 nM | C#CC[C@H]1C(=O)N[C@@H]([C@@H](C)CC)C(=O)N(C)CC(=O)N(C)[C@H]2CC[C@@H](C)CN(C2=O)[C@@H](Cc2ccc(C(F)(F)F)cc2)C(=O)N(C)CC(=O)N[C@@H](CCc2ccc(C(F)(F)F)c(Cl)c2)C(=O)N2CCC[C@H]2C(=O)NC2(CCCC2)C(=O)N(C)[C@@H](C2CCCC2)C(=O)N(C)[C@H](C(=O)N(C)C)CC(=O)N1C [PP1340] | B (a compound having 3 or more and less than 10 is denoted as B) | B (a compound having 3 or more and less than 10 is denoted as B) |
| 72.7 nM | CCO[C@@H]1C[C@H]2C(=O)NC3(CCC3)C(=O)N(C)[C@@H](C(CC)CC)C(=O)N(C)[C@H](C(=O)N(C)C)CC(=O)N(C)[C@@H](CC3CC3)C(=O)N[C@@H]([C@@H](C)CC)C(=O)N(C)CC(=O)N(C)[C@H]3C/C=C\CCN(C3=O)[C@@H](Cc3ccc(F)cc3C)C(=O)N(C)CC(=O)N[C@@H](CCc3cc(F)c(C(F)(F)F)c(F)c3)C(=O)N2C1 [PP1514] | A (a compound having 10 or more and less than 20 is denoted as A) | A (a compound having 10 or more and less than 20 is denoted as A) |
| 16.7 nM | CC[C@H](C)[C@@H]1NC(=O)[C@H](CC2CC2)N(C)C(=O)C[C@@H](C(=O)N2CCOCC2)N(C)C(=O)[C@H](C2CCCC2)N(C)C(=O)C2(CCC2)NC(=O)[C@@H]2CCCN2C(=O)[C@H](CCc2ccc(C(F)(F)F)c(Cl)c2)NC(=O)CN(C)C(=O)[C@H](Cc2ccc(C(F)(F)F)cc2)N2C[C@H](C)CC[C@@H](C2=O)N(C)C(=O)CN(C)C1=O [PP1344] | B (a compound having 3 or more and less than 10 is denoted as B) | B (a compound having 3 or more and less than 10 is denoted as B) |
| 21.4 nM | CCO[C@@H]1C[C@H]2C(=O)NC3(CCC3)C(=O)N(C)[C@@H](C(CC)CC)C(=O)N(C)[C@H](C(=O)N(C)C)CC(=O)N(C)[C@@H](CC3CC3)C(=O)N[C@@H]([C@@H](C)CC)C(=O)N(C)CC(=O)N(C)[C@H]3C/C=C\CCN(C3=O)[C@@H](Cc3ccc(C(F)(F)F)cc3)C(=O)N(C)CC(=O)N[C@@H](CCc3ccc(Cl)c(Cl)c3)C(=O)N2C1 [PP1219] | AA (a compound having 20 or more is denoted as AA) | A (a compound having 10 or more and less than 20 is denoted as A) |
| 16.2 nM | CC[C@H](C)[C@@H]1NC(=O)[C@H](CC2CC2)N(C)C(=O)C[C@@H](C(=O)N(C)C)N(C)C(=O)[C@H](C2CCCC2)N(C)C(=O)C2(CC(C)(C)C2)NC(=O)[C@@H]2C[C@@H](C(F)(F)F)CN2C(=O)[C@H](CCc2cc(F)c(C(F)(F)F)c(F)c2)NC(=O)CN(C)C(=O)[C@H](Cc2ccc(F)cc2)N2CC/C=C\C[C@@H](C2=O)N(C)C(=O)CN(C)C1=O [PP1507] | A (a compound having 10 or more and less than 20 is denoted as A) | A (a compound having 10 or more and less than 20 is denoted as A) |
| 301 nM | CCO[C@@H]1C[C@H]2C(=O)NC3(CCC3)C(=O)N(C)[C@@H](C(CC)CC)C(=O)N(C)[C@H](C(=O)N(C)C)CC(=O)N(C)[C@@H](C)C(=O)N[C@@H]([C@@H](C)CC)C(=O)N(C)CC(=O)N(C)[C@H]3C/C=C\CCN(C3=O)[C@@H](Cc3ccc(C(F)(F)F)cc3)C(=O)N(C)CC(=O)N[C@@H](CCc3ccc4sccc4c3)C(=O)N2C1 [PP1222] | A (a compound having 10 or more and less than 20 is denoted as A) | A (a compound having 10 or more and less than 20 is denoted as A) |
| 11.1 nM | CCCOC[C@H]1C(=O)N[C@@H]([C@@H](C)CC)C(=O)N(C)CC(=O)N(C)[C@H]2C/C=C\CCN(C2=O)[C@@H](Cc2ccc(C(F)(F)F)cc2)C(=O)N(C)CC(=O)N[C@@H](CCc2cc(F)c(C(F)(F)F)c(F)c2)C(=O)N2C[C@H](OCC)C[C@H]2C(=O)NC2(CC(C)(C)C2)C(=O)N(C)[C@@H](C2CCCC2)C(=O)N(C)[C@H](C(=O)N(CC)CC)CC(=O)N1C [PP1575] | B (a compound having 3 or more and less than 10 is denoted as B) | B (a compound having 3 or more and less than 10 is denoted as B) |
| 38 nM | CC[C@H](C)[C@@H]1NC(=O)[C@H](CC2CC2)N(C)C(=O)C[C@@H](C(=O)N(C)C)N(C)C(=O)[C@H](C2CCCC2)N(C)C(=O)C2(CC(C)(C)C2)NC(=O)[C@@H]2C[C@@H](C(F)(F)F)CN2C(=O)[C@H](CCc2cc(F)c(C(F)(F)F)c(F)c2)NC(=O)CN(C)C(=O)[C@H](Cc2ccc(C(F)(F)F)cc2)N2CC/C=C\C[C@@H](C2=O)N(C)C(=O)CN(C)C1=O [PP1504] | A (a compound having 10 or more and less than 20 is denoted as A) | A (a compound having 10 or more and less than 20 is denoted as A) |
| 24.6 nM | CCO[C@@H]1C[C@H]2C(=O)NC3(CCC3)C(=O)N(C)[C@@H](C3CCCC3)C(=O)N(C)[C@H](C(=O)N3CCOCC3)CC(=O)N(C)[C@@H](CC(F)F)C(=O)N[C@@H]([C@@H](C)CC)C(=O)N(C)CC(=O)N(C)[C@H]3C/C=C\CCN(C3=O)[C@@H](Cc3ccc(C(F)(F)F)cc3)C(=O)N(C)CC(=O)N[C@@H](CCc3cc(F)c(C(F)(F)F)c(F)c3)C(=O)N2C1 [PP1285] | AA (a compound having 20 or more is denoted as AA) | A (a compound having 10 or more and less than 20 is denoted as A) |
| 2.8 nM | CCCOC[C@H]1C(=O)N[C@@H]([C@@H](C)CC)C(=O)N(C)CC(=O)N(C)[C@H]2C/C=C\CCN(C2=O)[C@@H](Cc2ccc(C(F)(F)F)cc2)C(=O)N(C)CC(=O)N[C@@H](CCc2cc(F)c(C(F)(F)F)c(F)c2)C(=O)N2C[C@H](OCC)C[C@H]2C(=O)NC2(CCC2)C(=O)N(C)[C@@H](C2CCCC2)C(=O)N(C)[C@H](C(=O)N(C)CC)CC(=O)N1C [PP1569] | A (a compound having 10 or more and less than 20 is denoted as A) | B (a compound having 3 or more and less than 10 is denoted as B) |
| 25.4 nM | CCO[C@@H]1C[C@H]2C(=O)NC3(CCC3)C(=O)N(C)[C@@H](C(CC)CC)C(=O)N(C)[C@H](C(=O)N(C)C)CC(=O)N(C)[C@@H](COC)C(=O)N[C@@H]([C@@H](C)CC)C(=O)N(C)CC(=O)N(C)[C@H]3C/C=C\CCN(C3=O)[C@@H](Cc3ccc(C(F)(F)F)cc3)C(=O)N(C)CC(=O)N[C@@H](CCc3cc(F)c(C(F)(F)F)c(F)c3)C(=O)N2C1 [PP1205] | AA (a compound having 20 or more is denoted as AA) | A (a compound having 10 or more and less than 20 is denoted as A) |

| Structure (SMILES) | IC50 [2] | NRAS/KRAS (ratio of KD value for GDP-bound NRAS wild-type protein to KD value for KRAS) [1] | HRAS/KRAS (ratio of KD value for GDP-bound HRAS wild-type protein to KD value for KRAS) [3] |
| --- | --- | --- | --- |
| CCO[C@@H]1C[C@H]2C(=O)NC3(CCC3)C(=O)N(C)[C@@H](C3CCCC3)C(=O)N(C)[C@H](C(=O)N3CCCCC3)CC(=O)N(C)[C@@H](C)C(=O)N[C@@H]([C@@H](C)CC)C(=O)N(C)CC(=O)N(C)[C@H]3C/C=C\CCN(C3=O)[C@@H](Cc3ccc(C(F)(F)F)cc3)C(=O)N(C)CC(=O)N[C@@H](CCc3cc(F)c(C(F)(F)F)c(F)c3)C(=O)N2C1 [PP1292] | 24.6 nM | A (a compound having 10 or more and less than 20 is denoted as A) | A (a compound having 10 or more and less than 20 is denoted as A) |

Source: patent US20250230193A1, “CYCLIC COMPOUND HAVING SELECTIVE KRAS INHIBITORY EFFECT ON HRAS AND NRAS” (CHUGAI SEIYAKU KABUSHIKI KAISHA, priority 2022, published 2025)
